Reference: ChEMBL document CHEMBL2440076, “New triarylpyrazoles as broad-spectrum anticancer agents: design, synthesis, and biological evaluation” (Eur J Med Chem, 2013)

Experiments:
Format in all cases: functional
MDA-MB-435 = test: Growth inhibition of human MDA-MB-435 cells assessed as cell growth at 3X10'-6 M after 48 hrs by sulforhodamine B assay; conditions: MDA-MB-435, 48 h, read-out: Activity
RPMI-8226 = test: Growth inhibition of human RPMI8226 cells assessed as cell growth at 3X10'-9 M after 48 hrs by sulforhodamine B assay; conditions: RPMI-8226, 48 h, read-out: Activity
UACC-62 = test: Growth inhibition of human UACC62 cells assessed as cell growth at 3X10'-8 M after 48 hrs by sulforhodamine B assay; conditions: UACC-62, 48 h, read-out: Activity
TK-10 [1] = test: Growth inhibition of human TK10 cells assessed as cell growth at 3X10'-6 M after 48 hrs by sulforhodamine B assay; conditions: TK-10, 48 h, read-out: Activity
[2] = Growth inhibition of human HCC2998 cells assessed as cell growth at 3X10'-6 M after 48 hrs by sulforhodamine B assay; conditions: HCC 2998, 48 h, read-out: Activity
SN12C = test: Growth inhibition of human SN12C cells assessed as cell growth at 3X10'-7 M after 48 hrs by sulforhodamine B assay; conditions: read-out: Activity
IGROV-1 = test: Growth inhibition of human IGROV1 cells assessed as cell growth at 3X10'-6 M after 48 hrs by sulforhodamine B assay; conditions: IGROV-1, 48 h, read-out: Activity
SF-268 [3] = test: Growth inhibition of human SF268 cells assessed as cell growth at 3X10'-8 M after 48 hrs by sulforhodamine B assay; conditions: SF-268, 48 h, read-out: Activity
SF-268 [4] = test: Growth inhibition of human SF268 cells assessed as cell growth at 3X10'-6 M after 48 hrs by sulforhodamine B assay; conditions: SF-268, 48 h, read-out: Activity
RXF 393 [5] = test: Growth inhibition of human RXF393 cells assessed as cell growth at 3X10'-8 M after 48 hrs by sulforhodamine B assay; conditions: RXF 393, 48 h, read-out: Activity
BT-549 = test: Growth inhibition of human BT549 cells assessed as cell growth at 3X10'-5 M after 48 hrs by sulforhodamine B assay; conditions: BT-549, 48 h, read-out: Activity
COLO 205 = test: Growth inhibition of human COLO205 cells assessed as cell growth at 3X10'-8 M after 48 hrs by sulforhodamine B assay; conditions: COLO 205, 48 h, read-out: Activity
HCT-116 = test: Growth inhibition of human HCT116 cells assessed as cell growth at 3X10'-5 M after 48 hrs by sulforhodamine B assay; conditions: HCT-116, 48 h, read-out: Activity
RXF 393 [6] = test: Growth inhibition of human RXF393 cells assessed as cell growth at 3X10'-9 M after 48 hrs by sulforhodamine B assay; conditions: RXF 393, 48 h, read-out: Activity
T47D [7] = test: Growth inhibition of human T47D cells assessed as cell growth at 3X10'-5 M after 48 hrs by sulforhodamine B assay; conditions: read-out: Activity
ACHN = test: Growth inhibition of human ACHN cells assessed as cell growth at 3X10'-8 M after 48 hrs by sulforhodamine B assay; conditions: read-out: Activity
OVCAR-8 = test: Growth inhibition of human OVCAR8 cells assessed as cell growth at 3X10'-7 M after 48 hrs by sulforhodamine B assay; conditions: OVCAR-8, 48 h, read-out: Activity
T47D [8] = test: Growth inhibition of human T47D cells assessed as cell growth at 3X10'-7 M after 48 hrs by sulforhodamine B assay; conditions: read-out: Activity
[9] = Growth inhibition of human HCC2998 cells assessed as cell growth at 3X10'-8 M after 48 hrs by sulforhodamine B assay; conditions: HCC 2998, 48 h, read-out: Activity
RXF 393 [10] = test: Growth inhibition of human RXF393 cells assessed as cell growth at 3X10'-6 M after 48 hrs by sulforhodamine B assay; conditions: RXF 393, 48 h, read-out: Activity
CAKI-1 = test: Growth inhibition of human CAKI-1 cells assessed as cell growth at 3X10'-6 M after 48 hrs by sulforhodamine B assay; conditions: CAKI-1, 48 h, read-out: Activity
MCF7 = test: Growth inhibition of human MCF7 cells assessed as cell growth at 3X10'-7 M after 48 hrs by sulforhodamine B assay; conditions: MCF7, 48 h, read-out: Activity
[11] = Growth inhibition of human HCC2998 cells assessed as cell growth at 3X10'-5 M after 48 hrs by sulforhodamine B assay; conditions: HCC 2998, 48 h, read-out: Activity
KM12 = test: Growth inhibition of human KM12 cells assessed as cell growth at 3X10'-7 M after 48 hrs by sulforhodamine B assay; conditions: KM12, 48 h, read-out: Activity
NCI-H322M = test: Growth inhibition of human NCI-H322M cells assessed as cell growth at 3X10'-6 M after 48 hrs by sulforhodamine B assay; conditions: read-out: Activity
SF-539 = test: Growth inhibition of human SF539 cells assessed as cell growth at 3X10'-9 M after 48 hrs by sulforhodamine B assay; conditions: SF-539, 48 h, read-out: Activity
SR = test: Growth inhibition of human SR cells assessed as cell growth at 3X10'-9 M after 48 hrs by sulforhodamine B assay; conditions: read-out: Activity
[12] = Growth inhibition of human NCI-ADR-RES cells assessed as cell growth at 3X10'-6 M after 48 hrs by sulforhodamine B assay; conditions: read-out: Activity
SNB-75 = test: Growth inhibition of human SNB75 cells assessed as cell growth at 3X10'-8 M after 48 hrs by sulforhodamine B assay; conditions: SNB-75, 48 h, read-out: Activity
HOP-62 = test: Growth inhibition of human HOP62 cells assessed as cell growth at 3X10'-7 M after 48 hrs by sulforhodamine B assay; conditions: HOP-62, 48 h, read-out: Activity
T47D [13] = test: Growth inhibition of human T47D cells assessed as cell growth at 3X10'-6 M after 48 hrs by sulforhodamine B assay; conditions: read-out: Activity
SNB-19 = test: Growth inhibition of human SNB19 cells assessed as cell growth at 3X10'-6 M after 48 hrs by sulforhodamine B assay; conditions: SNB-19, 48 h, read-out: Activity
NCI-H226 = test: Growth inhibition of human NCI-H226 cells assessed as cell growth at 3X10'-5 M after 48 hrs by sulforhodamine B assay; conditions: NCI-H226, 48 h, read-out: Activity
A549 = test: Growth inhibition of human A549/ATCC cells assessed as cell growth at 3X10'-8 M after 48 hrs by sulforhodamine B assay; conditions: A549, 48 h, read-out: Activity
T47D [14] = test: Growth inhibition of human T47D cells assessed as cell growth at 3X10'-8 M after 48 hrs by sulforhodamine B assay; conditions: read-out: Activity
DU-145 = test: Growth inhibition of human DU145 cells assessed as cell growth at 3X10'-8 M after 48 hrs by sulforhodamine B assay; conditions: DU-145, 48 h, read-out: Activity
TK-10 [15] = test: Growth inhibition of human TK10 cells assessed as cell growth at 3X10'-9 M after 48 hrs by sulforhodamine B assay; conditions: TK-10, 48 h, read-out: Activity

Structure (SMILES)	growth at 3 µM (MDA-MB-435) [%]	growth at 0.003 µM (RPMI-8226) [%]	growth at 0.03 µM (UACC-62) [%]	growth at 3 µM (TK-10 [1]) [%]	growth at 3 µM [2] [%]	growth at 0.3 µM (SN12C) [%]	growth at 3 µM (IGROV-1) [%]	growth at 0.03 µM (SF-268 [3]) [%]	growth at 3 µM (SF-268 [4]) [%]	growth at 0.03 µM (RXF 393 [5]) [%]	growth at 30 µM (BT-549) [%]	growth at 0.03 µM (COLO 205) [%]	growth at 30 µM (HCT-116) [%]	growth at 0.003 µM (RXF 393 [6]) [%]	growth at 30 µM (T47D [7]) [%]	growth at 0.03 µM (ACHN) [%]	growth at 0.3 µM (OVCAR-8) [%]	growth at 0.3 µM (T47D [8]) [%]	growth at 0.03 µM [9] [%]	growth at 3 µM (RXF 393 [10]) [%]	other results
O=C(Nc1cccc(-n2cc(-c3ccncc3)c(-c3ccc(Cl)c(O)c3)n2)c1)Nc1ccc(Cl)c(C(F)(F)F)c1	-31	96	95	24	7	91	-17	103	10	93	-19	100	-43	101	10	98	89	95	102	-28	growth at 3 µM (CAKI-1): -9%; growth at 0.3 µM (MCF7): 71%; growth at 30 µM [11]: -64%; growth at 0.3 µM (KM12): 96%; growth at 3 µM (NCI-H322M): 9%; growth at 0.003 µM (SF-539): 99%; growth at 0.003 µM (SR): 106%; growth at 3 µM [12]: -7%; growth at 0.03 µM (SNB-75): 92%; growth at 0.3 µM (HOP-62): 104%; growth at 3 µM (T47D [13]): 11%; growth at 3 µM (SNB-19): 9%; growth at 30 µM (NCI-H226): 5%; growth at 0.03 µM (A549): 94%; growth at 0.03 µM (T47D [14]): 103%; growth at 0.03 µM (DU-145): 105%; growth at 0.003 µM (TK-10 [15]): 101%
O=C(Nc1cccc(-n2cc(-c3ccncc3)c(-c3ccc(Cl)c(O)c3)n2)c1)Nc1cccc(C(F)(F)F)c1	26	99	96	37	76	99	29	94	37	97	-18	99	-34	96	7	101	91	97	97	49	growth at 3 µM (CAKI-1): 35%; growth at 0.3 µM (MCF7): 89%; growth at 30 µM [11]: 1%; growth at 0.3 µM (KM12): 97%; growth at 3 µM (NCI-H322M): 63%; growth at 0.003 µM (SF-539): 100%; growth at 0.003 µM (SR): 94%; growth at 3 µM [12]: 39%; growth at 0.03 µM (SNB-75): 94%; growth at 0.3 µM (HOP-62): 105%; growth at 3 µM (T47D [13]): 44%; growth at 3 µM (SNB-19): 36%; growth at 30 µM (NCI-H226): 20%; growth at 0.03 µM (A549): 100%; growth at 0.03 µM (T47D [14]): 95%; growth at 0.03 µM (DU-145): 99%; growth at 0.003 µM (TK-10 [15]): 94%
COc1cc(-c2nn(-c3cccc(NC(=O)Nc4ccc(Cl)c(C(F)(F)F)c4)c3)cc2-c2ccncc2)ccc1Cl	-36	102	94	25	26	91	5	103	25	93	-41	103	-63	98	8	98	97	95	107	20	growth at 3 µM (CAKI-1): 4%; growth at 0.3 µM (MCF7): 87%; growth at 30 µM [11]: -48%; growth at 0.3 µM (KM12): 95%; growth at 3 µM (NCI-H322M): 29%; growth at 0.003 µM (SF-539): 97%; growth at 0.003 µM (SR): 105%; growth at 3 µM [12]: 3%; growth at 0.03 µM (SNB-75): 93%; growth at 0.3 µM (HOP-62): 93%; growth at 3 µM (T47D [13]): 18%; growth at 3 µM (SNB-19): 19%; growth at 30 µM (NCI-H226): 3%; growth at 0.03 µM (A549): 94%; growth at 0.03 µM (T47D [14]): 101%; growth at 0.03 µM (DU-145): 105%; growth at 0.003 µM (TK-10 [15]): 101%
